Calls of active or inactive are those of the source. The rule behind the calls is not given here.

In this test the target is RanGTP-importin-beta complex (human Ran / KPNB1). Description: disruptors of RanGTP/KPNB1 binding – biochemical, FRET, CFP/YFP, cell-free homogeneous, confirmation (AID 2823). The settings on record: CFP-Ran/YFP-importin-beta FRET ratio.
As to `Cn1c(N/N=C/c2cc3ccccc3nc2Cl)nc2ccccc21`, the IC50 was > 120 µM (inactive).
Regarding `CCC(C)OC(=O)C[N+](C)(C)CCOC1CC2CCC1(C)C2(C)C` (configuration not stated), the IC50 is > 50 µM (inactive).
As for `COc1ccc(C2NCCc3c2[nH]c2ccccc32)cc1COc1ccc(F)cc1` (configuration not stated), the IC50 was > 50 µM (inactive).
With `CCOC(=O)/C=C1\SCC(=O)N1CC(=O)c1ccc[nH]1` the figure was > 50 µM (inactive); with `COCCNC(=O)/C(C#N)=C/c1cn(CC(=O)NCc2ccco2)c2ccccc12`, 40.4 µM; with `Cc1cc(/C=c2/sc3nc4ccccc4n3c2=O)c(C)n1-c1ccccn1`, > 50 µM (inactive).
With `Nc1c(C(=O)NC2CCCC2)c2nc3ccccc3nc2n1/N=C/c1ccco1` the figure was 14.3 µM; with `CCOC(=O)N1CCN(c2cc(=O)n(Cc3ccc(F)cc3)c(=O)[nH]2)CC1`, > 50 µM (inactive).
With `CC(C)Sc1nc(N2CCOCC2)c2c3c(sc2n1)COC(C)(C)C3` the figure was > 50 µM (inactive).
Regarding `C=CCn1c(O)c(N=NC(=S)Nc2ccccc2F)c2cc(S(=O)(=O)N3CCOCC3)ccc21`, the IC50 was > 50 µM (inactive).
With `CSc1nsc(/C=C/Nc2ccc(C)cc2)c1C#N` the figure was > 50 µM (inactive); with `Cn1c(=O)[nH]c2c(nc(-c3ccc(Cl)cc3)n2C)c1=O`, 26.1 µM.
As to `O=C(COC(=O)CSCC(=O)N1CCCCC1)Nc1ccc(Cl)cc1`, the IC50 is > 50 µM (inactive).
Take `CCN1/C(=C/C=C/c2sc3ccccc3[n+]2CC)Sc2ccccc21`: the IC50 is 16.6 µM.
With `N#C/C(=C/c1ccc(N2CCCCC2)o1)C(=O)NCCc1c[nH]c2ccccc12` the figure was 0.936 µM; with `COc1ccc(CCNC(=O)c2cc3c(=O)n4ccccc4nc3n(C3CCCCC3)c2=N)cc1OC`, 23.2 µM; with `COc1cc([C@@H]2[C@H]3CN(C)CC=C3C(C#N)=C(N)C2(C#N)C#N)cc2c1OCO2`, 21 µM.
As for `CCOC(=O)c1c(N2C(=O)Nc3ccccc3N2O)sc2c1CCCC2`, the IC50 was > 50 µM (inactive).
Then `COC(=O)C1=CN(CC2CCCO2)C=C(C(=O)OC)C1c1cccc(O)c1` (configuration not stated), with 14.1 µM; and `CC1(C)CC(=O)CC(=Nc2ccc3[nH]c(=O)[nH]c3c2)C1`, with > 50 µM (inactive).
Take `CCOCCCNC(=O)NC(=O)CN1CCN(S(=O)(=O)c2ccc3c(c2)OCCO3)CC1`: the IC50 is > 50 µM (inactive).
With `Nc1ccccc1C(=O)NNc1c2ccccc2nc2ccccc12` the figure was > 50 µM (inactive); with `Cc1cc(C(=O)N/N=C2\CC(=O)CC(C)(C)C2)n[nH]1`, > 50 µM (inactive).
For the compound `c1c2c(cc3sc(N4CCOCC4)nc13)OCCO2`, the IC50 is > 50 µM (inactive).
Take `O=c1cc(N2CCc3ccccc3C2)[nH]c(=O)n1C1CCCCC1`: the IC50 was > 50 µM (inactive).
In the case of `CC1(C)CC(=O)C/C(=N\NC(=O)C2CC23CCC3)C1` (configuration not stated), the IC50 is > 50 µM (inactive).
Then `CCN(Cc1ccccc1)C(=O)CN1C(=O)NC(CC)(c2ccc(F)cc2)C1=O` (configuration not stated), with > 50 µM (inactive).
With `COc1ccc(-c2cc(C(F)(F)F)n3nc(N)nc3n2)cc1` the figure was 14.6 µM; with `Cc1ccccc1N=Cc1cc2c(cc1O)OC(N)=C(C#N)C2c1ccccc1` (configuration not stated), > 50 µM (inactive).
With `COc1ccc(NC(=O)COC(C)=O)cc1Cl` the figure was > 50 µM (inactive).
As for `CCN1CCc2nc(NC(=O)c3cc(F)c(F)cc3Cl)sc2C1`, the IC50 is > 50 µM (inactive).
Then `Cc1ccc(Cn2ccc(NC(=O)c3noc4c3CCc3ccccc3-4)n2)cc1`, with > 50 µM (inactive); and `COc1ccccc1C#Cc1ccc2c(=O)c3ccccc3n(C)c2c1`, with 0.698 µM; and `CCC(CC)COC(=O)C1=C(C)NC(=O)NC1c1ccc(N(C)C)cc1` (configuration not stated), with > 50 µM (inactive).
With `COc1cc(NC(=O)Cn2ncc(Cl)c(Cl)c2=O)c(C)cc1[N+](=O)[O-]` the figure was > 50 µM (inactive).
Then `NC(=O)c1ccc(F)cc1`, with > 50 µM (inactive).
On to `Cc1cccc2cc(C#N)c(NCCNC(=S)NCCCN3CCOCC3)nc12`, for which the IC50 was 39.6 µM.
For `CCc1cc2c(COC(=O)c3c(C)noc3C)cc(=O)oc2cc1O`, the IC50 is > 50 µM (inactive).
Regarding `Cc1ccc(S(=O)(=O)c2cc3c(=O)n4cccc(C)c4nc3n(C3CCCCC3)c2=N)cc1`, the IC50 is 1.2 µM.
With `O=C(NC1CC1)c1ccc2c(Cl)c3c(nc2c1)CCCC3` the figure was > 50 µM (inactive); with `C=CCn1c(N)c(C(=O)OC(C)CC)c2nc3ccccc3nc21` (configuration not stated), 19.8 µM; with `CC1CC(C)CN(c2cc(=O)n(Cc3ccc(F)cc3)c(=O)[nH]2)C1` (configuration not stated), > 50 µM (inactive).
With `COc1ccccc1Nc1c2ccccc2nc2ccccc12` the figure was > 50 µM (inactive); with `CCCc1c2ccccc2nc2ccccc12`, 8.26 µM.
Consider `Oc1nc(Nc2ccc(F)cc2)sc1/C=C1\C=Nc2ccccc21`, for which the IC50 is > 50 µM (inactive).
Then `CC1=C(C(=O)OCC2CCCO2)C(c2ccccc2OC(C)C)C2=C(CC(c3ccco3)CC2=O)N1` (configuration not stated), with 8.41 µM; and `Cc1ccc2cc(C#N)c(N3CCCC3)nc2c1C`, with > 50 µM (inactive); and `Cc1nc(Nc2cnc(/C=C/c3cc(C(=O)Nc4cccc(C(F)(F)F)c4)ccc3C)cn2)cc(N2CCNCC2)n1`, with 19.7 µM.
With `O=Cc1ccc(N2Cc3ccccc3C2)cc1` the figure was > 50 µM (inactive).
Then `CC(C)Cc1ccc(CN2CCC(n3nccc3NC(=O)C3CCCC3)CC2)cc1`, with > 50 µM (inactive); and `Cc1cnc(C(=O)Nc2ccc(S(=O)(=O)N(C(C)C)C(C)C)cc2)cn1`, with > 50 µM (inactive).
As to `CCSc1nnc(-c2cc(Br)ccc2N=Cc2c(C)[nH]n(-c3ccccc3)c2=O)c(=O)[nH]1`, the IC50 is > 50 µM (inactive).
Turning to `N#Cc1c(N)nc2c(c1-c1ccc(F)cc1)CCC2`, the concentration for half-maximal inhibition (IC50) was 11 µM.
With `COc1cccc(-c2coc3c(C)c4oc(=O)c(CC(=O)O)c(C)c4cc23)c1` the figure was > 50 µM (inactive); with `O=C(O)c1ccccc1P(=O)(c1ccccc1)c1ccccc1`, > 50 µM (inactive); with `CCc1ccc(S(=O)(=O)Nc2ccc(-c3nc4cccnc4s3)cc2)s1`, > 50 µM (inactive).
Then `Cc1ccc(OCc2nnc(SCC(=O)CC(=O)Nc3ccccc3)o2)cc1`, with > 50 µM (inactive); and `Cc1ccc(C(=O)NNc2c3ccccc3nc3ccccc23)cc1`, with > 50 µM (inactive); and `CCOC(=O)/C(C#N)=C/c1c(N2CCN(c3ccc(OC)cc3)CC2)nc2c(C)cccn2c1=O`, with > 50 µM (inactive).
Then `CC1CCCCN1Cc1c(O)ccc2c(=O)c(-c3nc4ccccc4s3)coc12` (configuration not stated), with under 0.38 µM.
For the compound `CCC(C)c1ccc(OCC(=O)O)cc1` (configuration not stated), the IC50 was > 50 µM (inactive).
Consider `O=C(Nc1nonc1NC(=O)c1cccs1)c1cccs1`, for which the IC50 is > 50 µM (inactive).
On to `Cc1cc2oc3cc(NCCC4CCCN4C)ccc3c(=O)c2cc1C` (configuration not stated), for which the half-inhibitory concentration (IC50) was 8.12 µM.
Then `COc1ccccc1C(=O)NCCNc1nc2cc(C)cc(C)c2cc1C#N`, with 39.5 µM; and `COc1ccc(C2NC(C(=O)O)Cc3c2[nH]c2ccccc32)cc1CN1CCN(c2ccc(F)cc2)CC1` (configuration not stated), with 7.68 µM.
`COCC(=O)Nc1nnc(COc2ccc(Cl)cc2)s1`: the IC50 was > 50 µM (inactive).
`C[C@H](O)c1[nH]c2cc(F)ccc2c1[C@H](C)O`: the IC50 is > 50 µM (inactive).
With `Cc1ccc(/C=C/C(=O)Nc2cccc3ncccc23)o1` the figure was > 50 µM (inactive); with `CCn1nc(NC(=O)c2ccncc2)c2cc3ccc(C)cc3nc21`, 46.4 µM.
With `CCOC(=O)c1sc(NC(=O)Nc2ccc(F)cc2)nc1C` the figure was > 50 µM (inactive); with `COc1ccc(Br)cc1/C=C/C(=O)NC(=S)Nc1ccc(CN2CCOCC2)cc1`, > 50 µM (inactive).
Regarding `Cc1ccc2cc(C#N)c(NCCNC(=O)C3CCC3)nc2c1C`, the IC50 is > 50 µM (inactive).
Then `CCOc1ccc(C2C(C(=O)OC)=CN(CCOC)C=C2C(=O)OC)cc1`, with 13.1 µM; and `Cc1c(CC(=O)O)c(=O)oc2c(C)c3occ(-c4ccc(F)cc4)c3cc12`, with > 50 µM (inactive); and `CCn1c(SCc2nc(-c3ccccc3)no2)nnc1-c1cccs1`, with > 50 µM (inactive).
Then `CN1CCN(C(=O)c2cc3nc(-c4ccccc4)cc(C(F)(F)F)n3n2)CC1`, with > 50 µM (inactive).
With `CC(C)OCCCNC(=O)CCSc1ccc(Cl)cc1` the figure was > 50 µM (inactive); with `N#C/C(=C/c1ccc(N2CCOCC2)o1)C(=O)N1CCOCC1`, 4.46 µM; with `CC1CCN(c2nc3ccccc3nc2C(C#N)C(=O)OC2CCCCC2)CC1` (configuration not stated), > 50 µM (inactive).
As for `Oc1ccc(/C=N/Nc2ccc3ccccc3c2)c(O)c1`, the IC50 was > 50 µM (inactive).
Then `COc1ccc(CCNC(=O)c2cc3c(=O)n4ccccc4nc3n(CC3CCCO3)c2=N)cc1OC` (configuration not stated), with 21.3 µM.
With `O=C(Cc1ccccc1C(=O)O)Nc1cccc2ccccc12` the figure was > 50 µM (inactive).
Consider `Cc1ccccc1-n1nc2c(c1NC(=O)c1cc3ccccc3oc1=O)CS(=O)(=O)C2`, for which the IC50 was > 50 µM (inactive).
Then `COc1ccc(CNC(=O)C2CC(=O)N(C3CCCCC3)C2)cc1` (configuration not stated), with > 50 µM (inactive).
On to `Cc1ccc(Nc2cc(C)nn2-c2nc(C)cc(C)n2)cc1`, for which the IC50 is > 50 µM (inactive).
Regarding `Cc1c(CCC(=O)NC2CC2)c(=O)oc2c(C)c(O)ccc12`, the IC50 was 20.8 µM.
With `O=C(Nc1cccc(OC(=O)N2CCCCC2)c1)N1CCCCC1` the figure was > 50 µM (inactive); with `O=c1cn[nH]c2ccccc12`, > 50 µM (inactive); with `CCc1ccccc1NC(=O)/C(C#N)=C\c1ccc(Sc2ccccc2)o1`, > 50 µM (inactive).
With `CNC(=O)c1cc2c(ccc3ccccc32)oc1=N`, the IC50 was 5.26 µM.
With `O=c1c2ccccc2sc2ccc(C#CC3(O)CCCCC3)cc12` the figure was 23.1 µM; with `CC(C)SCC(=O)Nc1ncc2c(n1)-c1ccccc1CC2`, 10.1 µM.

The record behind these values is PubChem BioAssay AID2823 (Broad Institute, 2010).
